Columns and labels:
[1] = tested on: cell motility; conditions: cited from earlier work
[2] = tested on: GHOST cells; test: cell pattern maintenance / cell migration inhibition assay (media additives and hydrogels); format: cell-based
Description: One significant advantage afforded by WAP is the ability to an addressable link with stimuli with delayed signal development in cells, such as infection, proliferation, or migration. For implementation of the nano-neutralization assay, a technique for preventing pattern disruption was developed over time due to proliferation and migration of GHOST cells over the course of infection signal development. The effect of several media additives and hydrogels for the maintenance of patterns was tested.
Cell patterns were formed as described above. Arrays were imaged at 0, 24, and 48 hrs immediately after addition of 1 μM calcein AM live cell stain (Life Technologies) in PBS. Media additives were diluted directly into culture media at the indicated concentration. Cell proliferation (P) was calculated per block (4 wells per block) as the ratio of cells at time of imaging to the number of starting cells at time zero. Cell migration (M) was calculated as Nfull×P−Nwell, where Nfull is the number of cells per field of view, P is the proliferation rate, and Nwell is the number of cells per well.

[3] = molecular target: CCR5 (Homo sapiens, UniProt P51681); conditions: lowers the effective CCR5 concentration; cited from earlier work
Sequence of CCR5 (P51681 whole entry): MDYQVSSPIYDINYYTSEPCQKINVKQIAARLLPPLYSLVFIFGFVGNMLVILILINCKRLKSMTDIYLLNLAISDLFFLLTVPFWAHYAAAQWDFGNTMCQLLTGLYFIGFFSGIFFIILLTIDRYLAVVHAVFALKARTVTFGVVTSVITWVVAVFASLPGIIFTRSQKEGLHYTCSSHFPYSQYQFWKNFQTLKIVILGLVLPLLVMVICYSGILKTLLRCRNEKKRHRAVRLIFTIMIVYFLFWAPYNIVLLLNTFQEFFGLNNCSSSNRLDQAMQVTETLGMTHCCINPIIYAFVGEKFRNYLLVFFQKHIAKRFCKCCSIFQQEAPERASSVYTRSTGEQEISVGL

[4] = tested on: ACH2 cells; test: virus production by ACH2 cells in micro-wells detected by WAP; format: cell-based; conditions: ACH2 cells stimulated vs unstimulated, all loading densities, FIG. 6(b)
Description: FIGS. 6(a)-(b) illustrate one embodiment of detection/analysis of latently infected T cells using WAP. That is, as shown, WAP can be applied to study functional characteristics, such as virus production, of cells loaded into micro-wells. ACH2 cells produce HIV virus when stimulated with the cytokine TNFα. […] These cells produce virus when stimulated with TNFα, which can be contained in the media. The target cell coated slide is incubated with the array, removed, then allowed to incubate while biological signal develops (e.g. GFP accumulation). […] The median percent infection is higher in the presence of TNFα for each ACH2 cell count. In addition to assaying viral production capability, functional characteristics of virus producing cells in the micro-wells, such as gene expression, surface marker expression, or secretion of biomolecules of interest could provide functional information about virally infected cells.

Molecule: CS(=O)(=O)c1cccc(CNc2nc(Nc3ccc4c(c3)CCC(=O)N4)ncc2C(F)(F)F)c1 [PF-573228]
- effect on cell motility and adhesion [1]: inhibit cell motility but not adhesion
- individual pattern maintenance for the time required for signal development ([2]; 10 μM): resulted in individual pattern maintenance
- proliferation of patterned cells (Nt/Nto per block) ([2]; FIG. 15(b), 24 or 48 hours): reduced proliferation of patterned cells
- migration of patterned cells (number of cells migrating out of patterns) ([2]; FIG. 15(c), p<0.0001 Mann-Whitney U test): reduced migration of patterned cells
- loss of cell patterns ([2]; added to media, 0 hr vs 24 hrs post patterning, FIG. 9(f)): prevents loss of cell patterns

Molecule: Cc1ccc(-c2ccc3c(c2)C=C(C(=O)Nc2ccc(C[N+](C)(C)C4CCOCC4)cc2)CCC3)cc1.[Cl-] [TAK779]
- effect on HIV-1 entry [3]: slows HIV-1 entry

Molecule: C[C@@H](N)[C@H]1CC[C@H](C(=O)Nc2ccncc2)CC1 [Y-27632]
- effect on cell motility and adhesion [1]: inhibit cell motility but not adhesion

Molecule: TNFα
- median percent infection of patterned cells [4]: greater median percent infection

— patent US20150080234A1, “Cell Patterning” (priority 2013, published 2015)
